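Method: 48-hour compound exposure of cells in 96-well plates, five concentrations, linear interpolation of endpoints. GI50: concentration for 50% inhibition of growth. The concentration for full growth arrest is given as TGI.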
What was measured:
Assay in all cases: NCI-60 cell line screen, 48 h
[1] = system: MDA-MB-435
[2] = system: COLO 205 colon
[3] = system: CAKI-1 renal
[4] = system: SK-MEL-5 melanoma
[5] = system: UACC-257 melanoma
[6] = system: MALME-3M melanoma
[7] = system: HOP-62 NSCLC
[8] = system: ACHN renal
[9] = system: CCRF-CEM leukemia
[10] = system: NCI-H226 lung
[11] = system: RPMI-8226 leukemia
[12] = system: HCT-116 colon
[13] = system: SF-295 CNS
[14] = system: MCF7 breast
[15] = system: OVCAR-5 ovarian
[16] = system: HCC-2998 colon
[17] = system: OVCAR-4 ovarian
[18] = system: MDA-MB-231 breast
[19] = system: PC-3 prostate
[20] = system: M14 melanoma
[21] = system: K-562 leukemia
[22] = system: NCI-H460 lung
[23] = system: HT29 colon
[24] = system: SW-620 colon
[25] = system: A498 renal
[26] = system: U251 CNS
[27] = system: UACC-62 melanoma
[28] = system: OVCAR-3 ovarian
[29] = system: A549 NSCLC
[30] = system: UO-31 renal
[31] = system: T-47D breast
[32] = system: NCI-H522 lung
[33] = system: SF-268 CNS
[34] = system: SK-MEL-2 melanoma
[35] = system: NCI-H23 lung
[36] = system: MOLT-4 leukemia
[37] = system: SN12C renal
[38] = system: SK-OV-3 ovarian
[39] = system: SNB-75 CNS
[40] = system: EKVX NSCLC
[41] = system: HCT-15 colon
[42] = system: TK-10 renal
[43] = system: SK-MEL-28 melanoma
[44] = system: SNB-19 CNS
[45] = system: 786-0 renal
[46] = system: SR leukemia
[47] = system: RXF 393 renal
[48] = system: DU-145 prostate
[49] = system: HS 578T breast
[50] = system: SF-539 CNS
[51] = system: IGROV1 ovarian

## CC1(C)CC[C@]23CC[C@]4(C)[C@H](CC[C@@H]5[C@@]6(C)CCCNC(C)(C)[C@@H]6CC[C@]54C)[C@H]2[C@H]1OC3
[1]
  GI50: 1.65 µM
  TGI: 3.02 µM
[2]
  GI50: 1.28 µM
  TGI: 2.68 µM
[3]
  GI50: 1.62 µM
  TGI: 2.97 µM
[4]
  GI50: 1.69 µM
  TGI: 3.06 µM
[5]
  GI50: 1.92 µM
  TGI: 3.87 µM
[6]
  GI50: 1.79 µM
  TGI: 3.47 µM
[7]
  GI50: 1.91 µM
  TGI: 3.75 µM
[8]
  GI50: 1.71 µM
  TGI: 3.08 µM
[9]
  GI50: 2.32 µM
  TGI: 6.73 µM
[10]
  GI50: 1.7 µM
  TGI: 3.47 µM
[11]
  GI50: 1.94 µM
  TGI: 4.58 µM
[12]
  GI50: 1.52 µM
  TGI: 2.88 µM
[13]
  GI50: 1.7 µM
  TGI: 3.19 µM
[14]
  GI50: 1.44 µM
  TGI: 3.01 µM
[15]
  GI50: 1.6 µM
  TGI: 3.04 µM
[16]
  GI50: 1.54 µM
  TGI: 2.97 µM
[17]
  GI50: 1.65 µM
  TGI: 3.12 µM
[18]
  GI50: 1.66 µM
  TGI: 3.2 µM
[19]
  GI50: 1.61 µM
  TGI: 3.17 µM
[20]
  GI50: 1.77 µM
  TGI: 3.31 µM
[21]
  GI50: 1.96 µM
  TGI: 7 µM
[22]
  GI50: 0.646 µM
  TGI: 2.2 µM
[23]
  GI50: 1.78 µM
  TGI: 3.63 µM
[24]
  GI50: 1.75 µM
  TGI: 3.49 µM
[25]
  GI50: 1.68 µM
  TGI: 3.67 µM
[26]
  GI50: 1.74 µM
  TGI: 3.23 µM
[27]
  GI50: 1.79 µM
  TGI: 3.21 µM
[28]
  GI50: 1.62 µM
  TGI: 3.1 µM
[29]
  GI50: 1.81 µM
  TGI: 3.43 µM
[30]
  GI50: 1.56 µM
  TGI: 3 µM
[31]
  GI50: 1.71 µM
  TGI: 3.69 µM
[32]
  GI50: 1.9 µM
  TGI: 3.77 µM
[33]
  GI50: 2.04 µM
  TGI: 5.31 µM
[34]
  GI50: 1.95 µM
  TGI: 4.09 µM
[35]
  GI50: 1.76 µM
  TGI: 3.5 µM
[36]
  GI50: 2.1 µM
  TGI: 5.04 µM
[37]
  GI50: 1.68 µM
  TGI: 3.2 µM
[38]
  GI50: 2.73 µM
  TGI: 7.93 µM
[39]
  GI50: 1.5 µM
  TGI: 2.94 µM
[40]
  GI50: 1.68 µM
  TGI: 3.37 µM
[41]
  GI50: 1.31 µM
  TGI: 2.68 µM
[42]
  GI50: 1.89 µM
  TGI: 3.61 µM
[43]
  GI50: 1.66 µM
  TGI: 3.18 µM
[44]
  GI50: 1.85 µM
  TGI: 3.35 µM
[45]
  GI50: 1.66 µM
  TGI: 3.21 µM
[46]
  GI50: 1.49 µM
  TGI: 4.12 µM
[47]
  GI50: 1.56 µM
  TGI: 2.98 µM
[48]
  GI50: 1.74 µM
  TGI: 3.23 µM
[49]
  GI50: 1.96 µM
  TGI: 4.69 µM
[50]
  GI50: 1.64 µM
  TGI: 3.07 µM
[51]
  GI50: 1.79 µM
  TGI: 3.48 µM
